Measurements from PubChem BioAssay (NCI).
“And” between values parts separate entries of the source, which are not always exact repeats. Equal entries are not always repeated.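 In this assay, cells in 96-well plates receive the compound at five concentrations for 48 hours. Endpoints are linearly interpolated between the surrounding concentrations. The concentration for 50% growth inhibition is given as GI50. TGI denotes the concentration required for complete inhibition of growth.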

Key:
Assay in all cases: growth of human tumour cells (NCI), 48 h
PC-3 prostate = system: PC-3 prostate
HCC-2998 colon = system: HCC-2998 colon
NCI-H522 lung = system: NCI-H522 lung
SW-620 colon = system: SW-620 colon
EKVX NSCLC = system: EKVX NSCLC
CCRF-CEM leukemia = system: CCRF-CEM leukemia
RPMI-8226 leukemia = system: RPMI-8226 leukemia
UACC-257 melanoma = system: UACC-257 melanoma
HT29 colon = system: HT29 colon
SN12C renal = system: SN12C renal
SR leukemia = system: SR leukemia
SF-295 CNS = system: SF-295 CNS
HOP-62 NSCLC = system: HOP-62 NSCLC
HL-60(TB) leukemia = system: HL-60(TB) leukemia
SK-MEL-2 melanoma = system: SK-MEL-2 melanoma
SNB-19 CNS = system: SNB-19 CNS
MDA-MB-231 breast = system: MDA-MB-231 breast
UACC-62 melanoma = system: UACC-62 melanoma
OVCAR-5 ovarian = system: OVCAR-5 ovarian
NCI-H460 lung = system: NCI-H460 lung
HCT-116 colon = system: HCT-116 colon
SF-539 CNS = system: SF-539 CNS
NCI-H226 lung = system: NCI-H226 lung
SK-OV-3 ovarian = system: SK-OV-3 ovarian
MDA-N = system: MDA-N
OVCAR-4 ovarian = system: OVCAR-4 ovarian
LOX IMVI melanoma = system: LOX IMVI melanoma
ACHN renal = system: ACHN renal
M14 melanoma = system: M14 melanoma
SK-MEL-28 melanoma = system: SK-MEL-28 melanoma
OVCAR-3 ovarian = system: OVCAR-3 ovarian
TK-10 renal = system: TK-10 renal
NCI/ADR-RES ovarian = system: NCI/ADR-RES ovarian
MALME-3M melanoma = system: MALME-3M melanoma
U251 CNS = system: U251 CNS
RXF 393 renal = system: RXF 393 renal
MDA-MB-435 = system: MDA-MB-435
SNB-75 CNS = system: SNB-75 CNS
UO-31 renal = system: UO-31 renal
IGROV1 ovarian = system: IGROV1 ovarian
OVCAR-8 ovarian = system: OVCAR-8 ovarian
NCI-H23 lung = system: NCI-H23 lung
CAKI-1 renal = system: CAKI-1 renal
HS 578T breast = system: HS 578T breast
786-0 renal = system: 786-0 renal
MCF7 breast = system: MCF7 breast
DU-145 prostate = system: DU-145 prostate
A549 NSCLC = system: A549 NSCLC
SF-268 CNS = system: SF-268 CNS
T-47D breast = system: T-47D breast
MOLT-4 leukemia = system: MOLT-4 leukemia
K-562 leukemia = system: K-562 leukemia
A498 renal = system: A498 renal
KM12 colon = system: KM12 colon
BT-549 breast = system: BT-549 breast
SK-MEL-5 melanoma = system: SK-MEL-5 melanoma
HOP-92 NSCLC = system: HOP-92 NSCLC
HCT-15 colon = system: HCT-15 colon

O=[N+]([O-])c1cccc2nc3ccccc3c(NCCCn3ccnc3[N+](=O)[O-])c12
TGI (PC-3 prostate): 23.6 nM
TGI (HCC-2998 colon): 0.515 nM
TGI (NCI-H522 lung): 16.7 nM and 25.2 nM
TGI (SW-620 colon): 103 nM
GI50 (EKVX NSCLC): 76400 nM
GI50 (CCRF-CEM leukemia): 21.8 nM
TGI (RPMI-8226 leukemia): 0.419 nM
TGI (UACC-257 melanoma): 20.8 nM and 20.7 nM
TGI (HT29 colon): 1.24 nM
TGI (SN12C renal): 72.2 nM and 19.8 nM
GI50 (SR leukemia): < 0.1 nM
TGI (SR leukemia): 131 nM
TGI (SF-295 CNS): 214 nM and 41.5 nM
TGI (HOP-62 NSCLC): 143 nM
TGI (HL-60(TB) leukemia): 16.8 nM and 33.2 nM
GI50 (SK-MEL-2 melanoma): 22 nM
TGI (SNB-19 CNS): 15.3 nM
TGI (MDA-MB-231 breast): 11.9 nM
TGI (UACC-62 melanoma): 18.7 nM
GI50 (OVCAR-5 ovarian): 10.9 nM
TGI (NCI-H460 lung): 13.7 nM
TGI (HCT-116 colon): 1.98 nM and 18.8 nM
TGI (SF-539 CNS): 21.8 nM and 55 nM
TGI (NCI-H226 lung): 3.62 nM and 35.1 nM
TGI (SK-OV-3 ovarian): 111 nM
TGI (MDA-N): 0.244 nM
GI50 (OVCAR-4 ovarian): 20.3 nM
TGI (OVCAR-4 ovarian): 73.5 nM and 171 nM
TGI (LOX IMVI melanoma): 130 nM and 21.6 nM
GI50 (ACHN renal): 33400 nM
TGI (M14 melanoma): 0.256 nM
GI50 (SK-MEL-28 melanoma): 45400 nM
GI50 (OVCAR-3 ovarian): 12.2 nM
TGI (OVCAR-3 ovarian): 17.8 nM and 63.3 nM
TGI (TK-10 renal): 48.9 nM and 39.2 nM
GI50 (NCI/ADR-RES ovarian): 12.5 nM
TGI (NCI/ADR-RES ovarian): 495 nM and 348 nM
TGI (MALME-3M melanoma): 1.07 nM
TGI (U251 CNS): 1.78 nM
TGI (RXF 393 renal): 0.768 nM
TGI (MDA-MB-435): 0.231 nM
TGI (SNB-75 CNS): 77.5 nM
TGI (UO-31 renal): 5.95 nM and 38 nM
GI50 (IGROV1 ovarian): 41.9 nM
TGI (IGROV1 ovarian): 212 nM and 412 nM
TGI (OVCAR-8 ovarian): 12.6 nM and 16.7 nM
TGI (NCI-H23 lung): 23 nM
TGI (CAKI-1 renal): 81.6 nM and 188 nM
GI50 (HS 578T breast): 10.9 nM
TGI (HS 578T breast): 89.9 nM and 41.5 nM
TGI (786-0 renal): 13.7 nM
TGI (MCF7 breast): 1.46 nM

Cc1nc([P+](c2ccccc2)(c2ccccc2)c2ccccc2)c(Sc2sc(-c3ccccc3)nc2[P+](c2ccccc2)(c2ccccc2)c2ccccc2)o1
GI50 (PC-3 prostate): 1040 nM
TGI (PC-3 prostate): 2720 nM
GI50 (DU-145 prostate): 1220 nM
TGI (DU-145 prostate): 4960 nM
GI50 (A549 NSCLC): 1870 nM
TGI (A549 NSCLC): 10700 nM
GI50 (HCC-2998 colon): 2000 nM
TGI (HCC-2998 colon): 6220 nM
GI50 (NCI-H522 lung): 1430 nM
TGI (NCI-H522 lung): 6150 nM
GI50 (SW-620 colon): 637 nM
TGI (SW-620 colon): 2850 nM
GI50 (EKVX NSCLC): 1100 nM
TGI (EKVX NSCLC): 5640 nM
GI50 (CCRF-CEM leukemia): 959 nM
TGI (CCRF-CEM leukemia): 9400 nM
GI50 (RPMI-8226 leukemia): 270 nM
TGI (RPMI-8226 leukemia): 1250 nM
GI50 (SF-268 CNS): 2020 nM
TGI (SF-268 CNS): 7710 nM
GI50 (UACC-257 melanoma): 2000 nM
TGI (UACC-257 melanoma): 8810 nM
GI50 (T-47D breast): 327 nM
TGI (T-47D breast): 8810 nM
GI50 (HT29 colon): 861 nM
TGI (HT29 colon): 10600 nM
GI50 (SN12C renal): 1720 nM
TGI (SN12C renal): 6880 nM
GI50 (SR leukemia): 372 nM
TGI (SR leukemia): 17200 nM
GI50 (SF-295 CNS): 2240 nM
TGI (SF-295 CNS): 6770 nM
GI50 (HOP-62 NSCLC): 2080 nM
TGI (HOP-62 NSCLC): 13200 nM
GI50 (MOLT-4 leukemia): 1800 nM
TGI (MOLT-4 leukemia): 6150 nM
GI50 (K-562 leukemia): 368 nM
TGI (K-562 leukemia): 5900 nM
GI50 (HL-60(TB) leukemia): 1390 nM
TGI (HL-60(TB) leukemia): 4000 nM
GI50 (SK-MEL-2 melanoma): 2150 nM
TGI (SK-MEL-2 melanoma): 4920 nM
GI50 (SNB-19 CNS): 1600 nM
TGI (SNB-19 CNS): 12200 nM
GI50 (MDA-MB-231 breast): 1860 nM
TGI (MDA-MB-231 breast): 6270 nM
GI50 (UACC-62 melanoma): 1510 nM
TGI (UACC-62 melanoma): 3670 nM
GI50 (OVCAR-5 ovarian): 2290 nM
TGI (OVCAR-5 ovarian): 8530 nM
GI50 (NCI-H460 lung): 1130 nM
TGI (NCI-H460 lung): 2800 nM
GI50 (A498 renal): 1500 nM
TGI (A498 renal): 4680 nM
GI50 (HCT-116 colon): 896 nM
TGI (HCT-116 colon): 2940 nM
GI50 (SF-539 CNS): 2300 nM
TGI (SF-539 CNS): 7340 nM
GI50 (OVCAR-4 ovarian): 952 nM
TGI (OVCAR-4 ovarian): 5820 nM
GI50 (LOX IMVI melanoma): 1820 nM
TGI (LOX IMVI melanoma): 5710 nM
GI50 (ACHN renal): 1650 nM
TGI (ACHN renal): 4920 nM
GI50 (M14 melanoma): 1210 nM
TGI (M14 melanoma): 5300 nM
GI50 (SK-MEL-28 melanoma): 1990 nM
TGI (SK-MEL-28 melanoma): 10500 nM
GI50 (OVCAR-3 ovarian): 760 nM
TGI (OVCAR-3 ovarian): 3290 nM
GI50 (TK-10 renal): 2090 nM
TGI (TK-10 renal): 7630 nM
GI50 (NCI/ADR-RES ovarian): 3700 nM
TGI (NCI/ADR-RES ovarian): 19800 nM
GI50 (KM12 colon): 1390 nM
TGI (KM12 colon): 3350 nM
GI50 (MALME-3M melanoma): 1360 nM
TGI (MALME-3M melanoma): 7130 nM
GI50 (U251 CNS): 344 nM
TGI (U251 CNS): 4030 nM
GI50 (RXF 393 renal): 1780 nM
TGI (RXF 393 renal): 5260 nM
GI50 (MDA-MB-435): 1190 nM
TGI (MDA-MB-435): 3460 nM
GI50 (SNB-75 CNS): 1110 nM
TGI (SNB-75 CNS): 4310 nM
GI50 (UO-31 renal): 1810 nM
TGI (UO-31 renal): 5990 nM
GI50 (IGROV1 ovarian): 1400 nM
TGI (IGROV1 ovarian): 4830 nM
GI50 (BT-549 breast): 1280 nM
TGI (BT-549 breast): 6240 nM
GI50 (OVCAR-8 ovarian): 867 nM
TGI (OVCAR-8 ovarian): 11600 nM
GI50 (NCI-H23 lung): 1990 nM
TGI (NCI-H23 lung): 5920 nM
GI50 (SK-MEL-5 melanoma): 1480 nM
TGI (SK-MEL-5 melanoma): 2850 nM
GI50 (CAKI-1 renal): 2690 nM
TGI (CAKI-1 renal): 9710 nM
GI50 (HS 578T breast): 1220 nM
TGI (HS 578T breast): 5320 nM
GI50 (786-0 renal): 2340 nM
TGI (786-0 renal): 11200 nM
GI50 (HOP-92 NSCLC): 759 nM
TGI (HOP-92 NSCLC): 3730 nM
GI50 (MCF7 breast): 669 nM
TGI (MCF7 breast): 4810 nM
GI50 (HCT-15 colon): 2150 nM
TGI (HCT-15 colon): 7680 nM
